From patent US20090318465A1, “METHOD FOR IDENTIFYING COMPOUNDS THAT ACT AS INSULIN-SENSITIZERS” (priority 2006, published 2009)

Legend:
[1] = tested on: 3T3 L1 fibroblasts; test: Adipogenesis assay (phenotype-based primary screen); type: cell-based, mouse; details: test compound 20 μg/ml plus 5 μg/ml insulin, 8 days
Description: The phenotype-based assay used for screening the test compounds in the first screening step is an adipogenesis assay. Any of a variety of adipogenesis assays can be employed. Suitable adipogenesis assays can employ fibroblasts 3T3-L1, which can be derived from mouse and insulin, for example, of either human, porcine or bovine origin. The test compounds can be dissolved at a suitable concentration (e.g., 20 μg/ml) in a suitable solvent such as DMSO. Fibroblasts can be grown in 96-well plates containing sufficient cells, for example 5×10^4 cells/well, that are cultured in nutrient medium along with 5 μg/ml of insulin. After 3 days of incubation in CO2 incubators at 37° C., the nutrient medium with compounds is removed and fresh medium is exposed to the cells. After 8 days, the ability of compounds to potentiate insulin effect on transformation into fat filled cells, adipocytes, was assessed by observing under an inverted microscope. The lipid droplets are stained with Oil red O and percentage of stained cells is determined (e.g., estimated).
Compounds that caused the formation of adipocytes by more than 5 times the vehicle are termed as actives.
The assay was designed as in the reference J. Bio. […]
At the end of 8 days, the number of fat filled adipocytes formed in each well was assessed by observing under microscope. […]

[2] = tested on: dexamethasone treated insulin resistant 3T3-L1 adipocytes; test: Insulin resistance assay (IR assay), 14C-2-deoxyglucose uptake; type: cell-based, mouse
Source text: A suitable insulin resistance assay includes screening of compounds which act as insulin-sensitizers using chronically dexamethasone treated 3T3-L1 adipocytes as an in vitro model. This is a known model for studying insulin signaling and insulin resistance. Chronically dexamethasone treated 3T3-L1 adipocytes serve as a valid in vitro model of insulin resistance resembling diabetes patients.
In an embodiment, the method according to the present invention includes screening compounds identified as active in the phenotype-based assay against dexamethasone treated insulin resistant adipocytes. For example, the method can include applying actives from the insulin sensitivity assay at a concentration of 1-10 μM to the insulin resistant adipocytes for 1-4 days. The adipocytes were previously prepared for the assay by long term exposure to dexamethasone, for example, at 100 nM for about 24-48 hours.
The method can also include determining whether the compounds enhance glucose uptake in the insulin resistant adipocytes by more than 50% above that enhanced by insulin. The method can then include selecting compounds as active, if they caused 1.5 fold or more increase in glucose uptake compared to insulin treated adipocytes. Glucose uptake can be measured by any of a variety of known methods, such as measuring uptake of ^14C-labeled 2-deoxyglucose, a non metabolisable analogue of D-Glucose.
The assay was designed as in the reference, British Journal of Pharmacology, 130, 351-58, 2000, which is incorporated herein by reference for disclosure of the assay.
The solution of test compound (10 μM/mL) was prepared in DMSO.
Rosiglitazone (0.1 μM in DMSO) was used as standard.
Differentiation into adipocytes was induced by known methods as described below. (J. Biol. Chem., 260, 2646-2652, 1985, which is incorporated herein by reference for disclosure of the induction).
Culture medium containing […] 1-methyl-3-isobutylxanthine (IBMX), 0.25 μM dexamethasone, 5 μg/ml insulin (bovine/human), 10 mM HEPES buffer and fetal bovine serum (FBS) 10% by volume in Dulbecco's modified Eagle's medium (DMEM) was used for differentiation.
3T3 L1 fibroblasts were seeded in 24-well or 6-well plates at a density of 0.5-2×10^4 cells/well and were allowed to reach maximal confluency.
The confluent fibroblasts were exposed to culture medium for 2 days. After this period, fresh culture medium (DMEM) containing only insulin was used, 10% FBS was added and cultured for 4 days with change of medium every 2 days. After 7 days the cultures received DMEM containing 10% FBS with no exposure to insulin. By the end of 8-10 days, more than 95% of the cells have become differentiated into adipocytes.
The mature adipocytes were exposed to dexamethasone, 100 nM added in ethanol, in culture medium and incubated for 2 days. On the third day, solution of test compound was added along with 100 nM dexamethasone containing medium for 4 days with a change in medium after every 2 days. Vehicle control contained 1% v/v of DMSO. Rosiglitazone was used as a standard and was added at a concentration of 0.1 μM in DMSO, along with 100 nM dexamethasone containing medium for 4 days with a change in medium after every 2 days. After a total period of 6 days, the cells were processed for glucose uptake as follows.
The insulin resistant adipocytes were exposed to serum-free DMEM containing 0.1% bovine serum albumin for 3-4 hours at 37° C. in CO2 atmosphere. The test compound was also present during this period. After 3-4 hours, the medium was aspirated and replaced with Kreb's Ringer phosphate (KRP) buffer at pH 7.4 and with human/porcine insulin, 200 nM. The cells were incubated for 30 minutes at 37° C. At the end of 30 minutes, 0.05 or 0.1 μCi of ^14C-2-deoxyglucose was added to each well of either 24-well or 6-well plates respectively and was incubated for exactly 5 minutes. After exactly 5 minutes, the plates were transferred to ice trays and medium was rapidly aspirated. […]

Compound: CCOC(=O)c1ccc(C(=N)NC(=O)OC)cc1C [Compound 9, 4-(Imino-methoxycarbonylaminomethyl)-2-methyl-benzoic acid ethyl ester]
- activity in adipogenesis assay (active = adipocytes more than 5 times the vehicle) [1]: inactive
- activity in insulin resistance assay (cut off 1.5-fold of vehicle) ([2]; insulin resistant adipocytes, glucose uptake): inactive
- % of Rosiglitazone (comparison with Rosiglitazone) ([2]; test compound 10 μM/mL versus Rosiglitazone 0.1 μM): NIL
- Fold vehicle (fold activity over vehicle) ([2]; test compound 10 μM/mL, glucose uptake with 200 nM insulin, vehicle = 1.0): 1.01 ± 0.27
